The values below are quoted from earlier work in patent US8785634B2, “Spiropiperidine prolylcarboxypeptidase inhibitors” (Merck Sharp & Dohme Corp, priority 2010, dated 2014).

The conditions of series [1]: in vivo.
The test system of another series is rats. The conditions noted are these: intracerebroventricular.
Series [2] deals with obese, leptin deficient mice. The conditions noted are these: systemic administration.

For `CC(C)(N)Cc1ccccc1` [phentermine], in series [1], the “weight loss, of body weight, drug compared to placebo” value (“weight loss … compared to placebo” below) is 5%-10%. Regarding `CC(C)CC(N(C)C)C1(c2ccc(Cl)cc2)CCC1` (stereo not drawn) [sibutramine], in series [1], the “weight loss … compared to placebo” value is given as 5%-10%.

Take `CCN[C@@H](C)Cc1cccc(C(F)(F)F)c1` [dexfenfluramine]: in series [1], the “weight loss … compared to placebo” value is 5%-10%. As for t-butyl carbamate-prolyl prolinal [BPP], the overnight food intake result (in the series on rats; in series [2]) was “suppression of overnight food intake” throughout. `CCCCCCCCCCC[C@@H](C[C@@H]1OC(=O)[C@H]1CCCCCC)OC(=O)[C@H](CC(C)C)NC=O` [orlistat]: the “weight loss … compared to placebo” value in series [1] is on record as 5%-10%.
